Reference: patent US20230064978A1, “CYCLIC PEPTIDE RECEPTOR LANTHIONINE SYNTHETASE C-LIKE PROTEIN (LANCL) AND USES THEREOF” (LATERAL IP PTY LTD, priority 2019, published 2023)
Entries after “also recorded” stand apart in the source; their conditions may differ. Bridges are numbered along the chain shown (N, C = ends). Where no end group is shown, it is not given here.

What was measured:
NCI-H358 cells = experiment: Confocal imaging of LAT9991F-PAL binding and LANCL1 co-localization, with siRNA knockdown and competitors, in NCI-H358 cells; type: cell-based; details: SiLANCL1 NCI-H358 cells; competitor 25 μM
Experimental: A photoactivatable analog of LAT8881 (LAT9991F (SEQ ID NO:13)-PAL), was used to conduct the experiments. A549 or NCI-H358 cells were treated with LAT9991F-PAL at 2.5 μM during 30 minutes. Fluorescent signal was recorded after that LAT9991F-PAL was immobilized on its target(s) site by UV-crosslinking and the LAT9991F-PAL-target complexes were labeled with the green-fluorescent Alexa Fluor 488 alkyne dye by click-chemistry. Control cells were treated with the vehicle, dimethyl sulfoxide (DMSO), and with LAT9991F-PAL in combination with a large excess of the parent drug LAT8881 or other competitors, GSH, NSC61610 or ABA to evaluate, respectively, the non-specific fluorescent background and the specificity of the staining. For colocalization experiments, subsequently, immunofluorescence staining with an anti-LANCL1 or LANCL2 antibodies and an Alexa 568 (red) conjugated secondary antibody was performed. Images stacks of cells labeled with probes were collected and evaluated for the degree of colocalization of LAT9991F-PAL-target complexes and LANCL1 or LANCL2 using either the Measure Colocalization plugin in Metamorph or the JACoP plugin in ImageJ).
A549 or NCI-H358 cells (ATCC CCL-185 and ATCC CRL-5807, respectively) were cultured in appropriate medium containing 10% heat-inactivated FBS (Dutscher, #SV30160-036), 1% penicillin/streptomycin (Gibco, #15140-122) and maintained in a humidified 37° C. incubator with 5% CO2.
LAT9991F-PAL was dissolved in DMSO to make a 10 mM stock solution. Intermediate solutions at 25 μM and 2.5 μM were made in the culture medium from the 10 mM stock solutions of LAT8881 and LAT9991F-PAL, respectively. A two-fold dilution into PBS of each intermediate solution was used for cell treatment. A stock solution at 10 mM was prepared for the other competitors as GSH, NSC61610 and ABA. A final concentration at 25 μM was used for the assay.
ibidiTreat Polymer Coverslips (Ibidi, #80826) were coated with serum during 1 hour at 37° C., followed by Laminin (100 μg\ml) (incubation for 1 hour at 37° C.) for NCI-H358 cells.
A549 or NCI-H358 cells were seeded onto ibidiTreat Polymer Coverslips (Ibidi, #80826) at 2.5×10^5 cells/cm^2 in 200 μl of complete medium. After 24 hours, the medium was removed and cells were washed with PBS (Gibco, #10010049) and then pre-treated with the Taxol at 1 μM for 3 hours or with H2O2 25 μM for 2 hours. Cells were washed twice with PBS. Induced stress cells or control cells were then exposed to LAT9991F-PAL (2.5 μM) in PBS for 30 minutes, in the presence or absence of LAT8881 (25 μM), or the other compounds used as a competitor, and pre-incubated 10 minutes. After treatment, cells were washed with cold PBS and UV-irradiated (365 nm) in PBS for 20 min. After fixation with 4% paraformaldehyde and permeabilization (0.5% Triton/PBS) (Image-iT™ Fixation/Permeabilization Kit, ThermoFisher, #R37602), the bioorthogonal reaction with Alexa Fluor 488 Alkyne (1 μM) (ThermoFisher, #A10267) was performed at 25° C. using the Click-iT™ Cell Reaction Buffer Kit (ThermoFisher, #C10269) according to the manufacturer protocol. After click reaction, cells were washed twice with PBS, blocked with 3% BSA in PBS for 1 hour and stained with Hoechst 33342 dye (ThermoFisher, #H1399).
For colocalization experiments, cells were further incubated overnight at 4° C. with a mouse anti-LanCL1 antibody (Invitrogen, PAS-57-107) (dilution 1:1000) or LanCL2 (Atlas Antibodies HPA019711) (dilution 1:1000) in 3% BSA in PBS, washed twice with PBS, and then incubated respectively with a goat anti-mouse […] (Molecular Probes, #A21467) (dilution 1:800) for 1 h in 3% BSA in PBS. After three further washing steps with PBS, cells were embedded in Ibidi Mounting Medium (ibidi, #50001). The specimens were kept at 4° C. in the dark until analysis.
Images were acquired on an Axiovert200M (Zeiss) microscope using a CSU-W1 Yokogawa confocal unit.

spinal cord slice model = experiment: Spinal cord slice model; details: data not shown
[1] = test system: Dorsal root ganglion (DRG) neurons; experiment: Cell-binding fluorescence on cultured DRG neurons, paclitaxel neuropathy model; type: cell-based; details: DRG neurons from paclitaxel-treated vs untreated mice; probe 5 μM (FIG. 1)
Experimental: The cell-binding fluorescence protocol can be briefly described as follows. […] Model of chemotherapy-induced peripheral neuropathy was generated using paclitaxel in female C57/B16 mice—[…] Paclitaxel or vehicle (10 ml/kg body weight) injected intravenously (i.v.) on day 1, day 3 and day 5. Mechanical allodynia was confirmed using von Frey (VF) filaments 9 days after starting vehicle or paclitaxel treatment (left and right paws). Each of the ten C57/B16 mice (vehicle control and paclitaxel treated) were euthanized by CO2 inhalation and individually dissected.
L5-L6 DRGs were rapidly dissected and placed in Petri dishes containing dissection medium. Meninges were removed.
Each DRG pool was successively: • incubated in dissociation buffer (0.5 mg/ml Dispase, 2.5 mg/ml collagenase, 6 mg/ml BSA, 10 mM HEPES) for 30 min at 37° C. under gentle agitation at 800 rounds/min; • washed; • triturated in culture medium and filtered on a 40 μm filter; • re-suspended in 1 ml culture medium supplemented with nerve growth factor (NGF) 250 ng/ml.
Dissociated cells from each pool were counted, seeded on Poly-D-Lysin- and Laminin-coated μ slides at the density of 4×10^4 cells/well and incubated at 37° C. 5% CO2. The medium was changed daily for 3 days. […]

| Substance | Competition of LAT9991F-PAL binding by excess competitor (NCI-H358 cells) | Activity on the spinal cord slice model (spinal cord slice model) | Binding of PAL probe to DRG neurons [1] |
| --- | --- | --- | --- |
| YLRIVQCRSVEGSCGF [LAT8881, a cyclic peptide fragment of human growth hormone] | partially competed off |  |  |
| LAT9991-PAL: cyclic peptide of SEQ ID NO:12 (LAT9991) conjugated to the PAL (Photo-Activated Labelling) grouping (CRSVEGSCG; disulfide 1-8 (inferred); also: PAL group on N-terminal Cys-Arg part) |  | fully active | can be seen in DRG neurons from mice treated with paclitaxel (neuropathic pain model), but not in control untreated mice; also recorded: only to neurons from treated and neuropathic animals |
